Data as given in ChEMBL document CHEMBL3098081, “Synthesis and anticancer potential of benzothiazole linked phenylpyridopyrimidinones and their diones as mitochondrial apoptotic inducers” (Bioorg Med Chem Lett, 2014).

Assays:
[1] = Cytotoxicity against human ME180 cells after 48 hrs by MTT assay; format: functional, cell-based; details: ME-180, 48 h
DU-145 = test: Cytotoxicity against human DU145 cells after 48 hrs by MTT assay; format: functional, cell-based; details: DU-145, 48 h
B16 = test: Cytotoxicity against mouse B16 cells after 48 hrs by MTT assay; format: functional, cell-based; details: B16, 48 h
MCF7 = test: cells; details: Homo sapiens, MCF7, 48 h
Description: Cytotoxicity against human MCF7 cells after 48 hrs by MTT assay

| SMILES | IC50 [1] [µM] | IC50 (DU-145) [µM] | IC50 (B16) [µM] | IC50 (MCF7) [µM] |
| --- | --- | --- | --- | --- |
| COc1cc(-n2c(=O)n(-c3nc4ccc([N+](=O)[O-])cc4s3)c(=O)c3cccnc32)cc(OC)c1OC | > 20 | > 20 | 19.9 | > 20 |
| O=c1[nH]cc(F)c(=O)[nH]1 [FLUOROURACIL] | 4.9 |  | 4.2 | 3.5 |
